From ChEMBL document CHEMBL5375981, “Enhanced Tumor Targeting and Penetration of Proteolysis-Targeting Chimeras through iRGD Peptide Conjugation: A Strategy for Precise Protein Degradation in Breast Cancer” (J Med Chem, 2023)
Active and inactive are the calls of the source. No cut-off for these calls is given here.

Key:
Homo sapiens [1] = species: Homo sapiens; assay: Antitumor activity against patient-derived Breast cancer organoid assessed as increase in number of apoptotic cells by measuring increase in red fluorescence at 0.5 to 1 uM incubated for approximately 3 to 5 days by acridine orange/ethidium bromide double staining ssay; type: functional, cell-based; details: dose 0.5-1 µM, time 3-5 day
[2] = target: Bromodomain-containing protein 4 (Homo sapiens) (UniProt O60885); assay: Induction of BRD4 degradation in human L02 cells lacking integrin alphaVbeta3 expression at 300 nM incubated for 12 hrs by immunofluorescence staining based confocal microscopic analysis; type: cell-based
Homo sapiens [3] = species: Homo sapiens; assay: Antitumor activity against patient-derived Breast cancer organoid assessed as inhibition of cell growth at 0.5 to 1 uM incubated for 3 days by CCK-8 assay; type: functional, tissue-based; details: dose 0.5-1 µM, time 3.0 day
Homo sapiens [4] = species: Homo sapiens; assay: Antitumor activity against patient-derived Breast cancer organoid assessed as reduction in number of proliferating cells by measuring reduction in red fluorescence at 0.5 uM incubated for approximately 3 days by Edu incorporation assay; type: functional, tissue-based; details: time 3.0 day
MDA-MB-231 [5] = assay: Antitumor activity against human MDA-MB-231 cells xenografted in BALB/C nude mouse assessed as tumor growth inhibition at 8 uM, iv administered every other day and measured after 21 days by vernier caliper method relative to control; type: functional; details: MDA-MB-231, 504 h, time 21 day, read-out: TGI
MDA-MB-231 [6] = assay: Antitumor activity against human MDA-MB-231 cells xenografted in BALB/C nude mouse assessed as inhibition of cell proliferation by measuring reduction in number of Ki67-stained cells at 5 to 8 uM, iv administered every other day and measured after 21 days by immunohistochemistry; type: functional, organism-based; details: dose 5-8 µM, time 21.0 day
[7] = Antitumor activity against patient-derived Breast cancer organoid assessed as inhibition of cell growth incubated for approximately 3 to 5 days by CCK-8 assay; type: functional, tissue-based; details: Homo sapiens
MCF7 = assay: Antiproliferative activity against human MCF7 cells harboring low integrin alphaVbeta3 expression assessed as inhibition of cell growth incubated for 72 hrs by CCK-8 assay; type: functional, cell-based; details: MCF7, 72 h
MDA-MB-231 [8] = assay: Antitumor activity against human MDA-MB-231 cells xenografted in BALB/C nude mouse assessed as tumor growth inhibition at 5 uM, iv administered every other day and measured after 21 days by vernier caliper method relative to control; type: functional; details: MDA-MB-231, 504 h, time 21 day, read-out: TGI
[9] = target: Bromodomain-containing protein 4 (Homo sapiens) (UniProt O60885); assay: Induction of BRD4 degradation in human MCF7 cells harboring low integrin alphaVbeta3 expression at 300 nM incubated for 12 hrs by immunofluorescence staining based confocal microscopic analysis; type: cell-based
MDA-MB-231 [10] = assay: Antiproliferative activity against human MDA-MB-231 cells harboring high integrin alphaVbeta3 expression assessed as inhibition of cell growth incubated for 72 hrs by CCK-8 assay; type: functional, cell-based; details: MDA-MB-231, 72 h
[11] = Toxicity in BALB/C mouse xenografted with human MDA-MB-231 cells assessed as effect on liver weight at 5 to 8 uM, iv administered every other day for 21 days; type: organism-based; details: in vivo, 504 h, dose 5-8 µM, time 21 day
[12] = Toxicity in BALB/C mouse xenografted with human MDA-MB-231 cells assessed as heart damage at 5 to 8 uM, iv administered every other day for 21 days and measured 37 days post treatment by H and E staining based assay; type: organism-based; details: in vivo, 1392 h, dose 5-8 µM, time 58 day
[13] = Toxicity in BALB/C mouse xenografted with human MDA-MB-231 cells assessed as weight loss at 5 to 8 uM, iv administered for 21 days and measured every 3 days; type: organism-based; details: in vivo, 504 h, dose 5-8 µM, time 21 day
Homo sapiens [14] = species: Homo sapiens; assay: Antitumor activity against patient-derived Breast cancer organoid assessed as increase in number of apoptotic cells by measuring reduction in green fluorescence at 0.5 to 1 uM incubated for approximately 3 to 5 days by acridine orange/ethidium bromide double staining ssay; type: functional, cell-based; details: dose 0.5-1 µM, time 3-5 day
[15] = Toxicity in BALB/C mouse xenografted with human MDA-MB-231 cells assessed as effect on heart weight at 5 to 8 uM, iv administered every other day for 21 days; type: organism-based; details: in vivo, 504 h, dose 5-8 µM, time 21 day
[16] = Toxicity in BALB/C mouse xenografted with human MDA-MB-231 cells assessed as kidney damage at 5 to 8 uM, iv administered every other day for 21 days and measured 37 days post treatment by H and E staining based assay; type: organism-based; details: in vivo, 1392 h, dose 5-8 µM, time 58 day
L02 = assay: Antiproliferative activity against human L02 cells harboring minimal integrin alphaVbeta3 expression assessed as inhibition of cell growth incubated for 72 hrs by CCK-8 assay; type: functional, cell-based; details: L02, 72 h
MDA-MB-231 [17] = assay: Antitumor activity against human MDA-MB-231 cells xenografted in BALB/C nude mouse assessed as induction of apoptosis in tumor cells at 5 to 8 uM, iv administered every other day and measured after 21 days by immunohistochemistry; type: functional, organism-based; details: dose 5-8 µM, time 21.0 day
[18] = Toxicity in BALB/C mouse xenografted with human MDA-MB-231 cells assessed as lung damage at 5 to 8 uM, iv administered every other day for 21 days and measured 37 days post treatment by H and E staining based assay; type: organism-based; details: in vivo, 1392 h, dose 5-8 µM, time 58 day
[19] = target: Bromodomain-containing protein 4 (Homo sapiens) (UniProt O60885); assay: (§1) Induction of BRD4 degradation in human MDA-MB-231 cells harboring high integrin alphaVbeta3 expression assessed as reduction in BRD4 levels at 500 nM pretreated with integrin receptor antagonist cilengitide for 2 hrs followed by compound addition and measured after 12 hrs by immunofluorescence staining based confocal microscopic analysis; type: cell-based
[20] = Toxicity in BALB/C mouse xenografted with human MDA-MB-231 cells assessed as adverse reactions at 5 to 8 uM, iv administered for 21 days and measured every 3 days; type: organism-based; details: in vivo, 504 h, dose 5-8 µM, time 21 day
[21] = Toxicity in BALB/C mouse xenografted with human MDA-MB-231 cells assessed as effect on kidney weight at 5 to 8 uM, iv administered every other day for 21 days; type: organism-based; details: in vivo, 504 h, dose 5-8 µM, time 21 day
[22] = Solubility in distilled water measured for 30 mins by ultraviolet spectrophotometry analysis; type: physicochemical
Mus musculus = assay: In vivo induction of BRD4 degradation in BALB/C mouse xenografted with human MDA-MB-231 cells assessed as reduction in BRD4 level by measuring reduction in green fluorescence at 5 to 8 uM, iv administered every other day and measured after 21 days by immunofluorescence analysis; type: functional, organism-based; details: dose 5-8 µM, time 21.0 day
[23] = Toxicity in BALB/C mouse xenografted with human MDA-MB-231 cells assessed as effect on lung weight at 5 to 8 uM, iv administered every other day for 21 days; type: organism-based; details: in vivo, 504 h, dose 5-8 µM, time 21 day
[24] = target: Bromodomain-containing protein 4 (Homo sapiens) (UniProt O60885); assay: as §1, with “NRP-1 inhibitor EG00229” for “integrin receptor antagonist cilengitide”; type: cell-based
[25] = Drug release in PBS assessed as increase in (2S)-1-((R)-2-(tert-butyl)-17-((S)-4-(4-chlorophenyl)-2,3,9-trimethyl-6H-thieno[3,2-f][1,2,4]triazolo[4,3-a][1,4]diazepin-6-yl)-4,16-dioxo-6,9,12-trioxa-3,15-diazaheptadecanoyl)-4-hydroxy-N-((S)-1-(4-(4-methylthiazol-5-yl)phenyl)ethyl)pyrrolidine-2-carboxamide concentration at 50 uM in presence of GSH by LC-MS analysis; type: ADME; details: buffer, TDE = time-dependent effect
[26] = Toxicity in BALB/C mouse xenografted with human MDA-MB-231 cells assessed as liver damage at 5 to 8 uM, iv administered every other day for 21 days and measured 37 days post treatment by H and E staining based assay; type: organism-based; details: in vivo, 1392 h, dose 5-8 µM, time 58 day
[27] = target: Bromodomain-containing protein 4 (Homo sapiens) (UniProt O60885); assay: Induction of BRD4 degradation in human MDA-MB-231 cells harboring high integrin alphaVbeta3 expression at 300 nM incubated for 16 to 20 hrs by Western blot analysis; type: cell-based; details: time 16-20 hrs
[28] = Stability of compound in PBS containing 5% serum at 50 uM measured after 72 hrs by LC-MS analysis; type: physicochemical, cell-free; details: read-out: Stability

Cc1ncsc1-c1ccc([C@H](C)NC(=O)[C@@H]2C[C@@H](OC(=O)OCCSSCCOC(=O)CCC(=O)NCCCC[C@@H]3NC(=O)[C@H](CC(=O)O)NC(=O)CNC(=O)[C@H](CCCNC(=N)N)NC(=O)[C@@H](N)CSSC[C@@H](C(=O)O)NC(=O)[C@H](CC(=O)O)NC(=O)[C@@H]4CCCN4C(=O)CNC3=O)CN2C(=O)[C@@H](NC(=O)COCCOCCOCCNC(=O)C[C@@H]2N=C(c3ccc(Cl)cc3)c3c(sc(C)c3C)-n3c(C)nnc32)C(C)(C)C)cc1
Activity (Homo sapiens [1]): Active
Activity [2]: inactive
Activity (Homo sapiens [3]): Active
Activity (Homo sapiens [4]): Active
inhibition in vivo at 8 µM (MDA-MB-231 [5]): 81.5%
Activity (MDA-MB-231 [6]): Active
IC50 [7]: 950 nM
IC50 (MCF7): 260 nM
inhibition in vivo at 5 µM (MDA-MB-231 [8]): 62.3%
Activity [9]: inactive
IC50 (MDA-MB-231 [10]): 88 nM
Activity [11]: Non-Toxic
Activity [12]: Non-Toxic
Activity [13]: Non-Toxic
Activity (Homo sapiens [14]): Active
Activity [15]: Non-Toxic
Activity [16]: Non-Toxic
IC50 (L02): 1500 nM
Activity (MDA-MB-231 [17]): Active
Activity [18]: Non-Toxic
Activity [19]: inactive
Activity [20]: Non-Toxic
Activity [21]: Non-Toxic
solubility at 0.5 h [22]: > 10 mM
Activity (Mus musculus): Active
Activity [23]: Non-Toxic
Activity [24]: inactive
Drug metabolism [25]: Tde
Activity [26]: Non-Toxic
Activity [27]: Active
remaining at 72 h, 50 µM [28]: 89.9%
